Data: patent US20030186817A1, “SUBSTITUTED 2,4-DIAMINO-1,3,5-TRIAZINES, PROCESSES FOR THEIR PREPARATION AND THEIR USE AS HERBICIDES AND PLANT GROWTH REGULATORS” (priority 1998, published 2003)

Key:
[1] = test system: Stellaria media, Amaranthus retroflexus, Sinapis avreuse, Avena fatura, Lolium multiflorum and Setaria viridis; test: Post-emergence action against weeds (greenhouse pot test, visual rating); type: in vivo; conditions: three-leaf stage, application rate of 3.0 kg or less of active substance per hectare, 3 to 4 weeks in greenhouse
Experimental: Seeds of mono- and dicotyledonous weeds are placed in sandy loam soil in cardboard pots, covered with soil and cultivated in a greenhouse under good growth conditions. Two to three weeks after sowing, the test plants are treated at the three-leaf stage. The novel compounds, formulated as wettable powders or emulsion concentrates, are sprayed in various dosages onto the green parts of the plant at an application rate of from 600 to 8001 of water/ha (converted), and, after the test plants have remained in the greenhouse for 3 to 4 weeks under optimum growth conditions, the action of the preparations is rated visually by comparison with untreated controls. The novel compositions also have good post-emergence herbicidal activity against a broad spectrum of economically important weed grasses and broad-leaved weeds.

[2] = test system: Stellaria media, Amaranthus retroflexus, Sinapis avreuse, Avena fatura, Lolium multiflorum and Setaria viridis; test: Pre-emergence action against weeds (greenhouse pot test, visual rating); type: in vivo; conditions: application rate of 3.0 kg or less of active substance per hectare, trial period of 3 to 4 weeks
From the text: Seeds of mono- and dicotyledonous weed plants are placed in sandy loam soil in cardboard pots and covered with soil. The novel compounds, formulated as wettable powders or emulsion concentrates, are then applied to the surface of the soil cover in the form of an aqueous suspension or emulsion at an application rate of from 600 to 800 l of water/ha (converted), in various dosages. After the treatment, the pots are placed in a greenhouse and kept under good growth conditions for the weeds. After the test plants have emerged after a trial period of 3 to 4 weeks, the damage to the plants or the negative effect on emergence is rated visually by comparison with untreated controls. As shown by the test results, the novel compounds have good herbicidal pre-emergence activity against a broad spectrum of weed grasses and broad-leaved weeds.

| SMILES | herbicidal activity post-emergence (rated visually) [1] | herbicidal activity pre-emergence (damage to the plants or negative effect on emergence, rated visually) [2] |
| --- | --- | --- |
| CC(C)c1nc(N)nc(NCCOC(=O)c2ccccc2Cl)n1 [Example 20] | good and in most cases very good herbicidal activity |  |
| CCC(COC(=O)c1ccc(F)cc1Cl)Nc1nc(N)nc(C(C)C)n1 (stereo not shown) [Example 23] | good and in most cases very good herbicidal activity |  |
| Cc1ccccc1C(=O)OCCNc1nc(N)nc(C(C)C)n1 [Example 43] | good and in most cases very good herbicidal activity |  |
| Cc1cc(C)cc(COCC(C)Nc2nc(N)nc(C(C)(C)F)n2)c1 (stereo not shown) [Example 64] |  | good and in most cases very good herbicidal activity |
| CC(COCc1cccc(Br)c1)Nc1nc(N)nc(C(C)(C)F)n1 (stereo not shown) [Example 76] |  | good and in most cases very good herbicidal activity |
| CC(COC(=O)c1cccc(C(F)(F)F)c1)Nc1nc(N)nc(C(C)C)n1 (stereo not shown) [Example 78] | good and in most cases very good herbicidal activity | good and in most cases very good herbicidal activity |
| CC(C)c1nc(N)nc(NCCOC(=O)c2cccc(C(F)(F)F)c2)n1 [Example 80] | good and in most cases very good herbicidal activity |  |
| CC(COCc1ccc(Cl)cc1)Nc1nc(N)nc(C(C)(C)F)n1 (stereo not shown) [Example 167] |  | good and in most cases very good herbicidal activity |
| CCCCc1ccc(C(=O)OCC(C)Nc2nc(N)nc(C(C)C)n2)cc1 (stereo not shown) [Example 184] | good and in most cases very good herbicidal activity |  |
| Cc1cc(C)cc(OCCC(C)Nc2nc(N)nc(C(C)(C)F)n2)c1 (stereo not shown) [Example 282] |  | good and in most cases very good herbicidal activity |
| CC(CCOc1cc(F)cc(F)c1)Nc1nc(N)nc(C(F)(F)C(F)F)n1 (stereo not shown) [Example 297] | good and in most cases very good herbicidal activity | good and in most cases very good herbicidal activity |
| CCC(CCOc1cc(F)cc(F)c1)Nc1nc(N)nc(C(C)C)n1 (stereo not shown) [Example 305] | good and in most cases very good herbicidal activity | good and in most cases very good herbicidal activity |
| Cc1cc(C)cc(OCCC(C)Nc2nc(N)nc(C(F)(F)C(F)F)n2)c1 (stereo not shown) [Example 329] |  | good and in most cases very good herbicidal activity |
| Cc1cc(C)cc(OCCC(C)Nc2nc(N)nc(C(C)C)n2)c1 (stereo not shown) [Example 339] |  | good and in most cases very good herbicidal activity |
| CCC(CCCOc1ccccc1)Nc1nc(N)nc(C(C)(C)F)n1 (stereo not shown) [Example 490] | good and in most cases very good herbicidal activity | good and in most cases very good herbicidal activity |
| CC(CCCOc1ccccc1)Nc1nc(N)nc(C(C)(C)F)n1 (stereo not shown) [Example 501] | good and in most cases very good herbicidal activity | good and in most cases very good herbicidal activity |
| Cc1cccc(OCCCC(C)Nc2nc(N)nc(C(C)(C)F)n2)c1 (stereo not shown) [Example 502] | good and in most cases very good herbicidal activity | good and in most cases very good herbicidal activity |
| CCC(CCCOc1ccccc1)Nc1nc(N)nc(C(C)C)n1 (stereo not shown) [Example 510] | good and in most cases very good herbicidal activity | good and in most cases very good herbicidal activity |

| SMILES | herbicidal activity post-emergence (rated visually) [1] | herbicidal activity pre-emergence (damage to the plants or negative effect on emergence, rated visually) [2] |
| --- | --- | --- |
| CC(C)(F)c1nc(N)nc(NC(CCCOc2ccccc2)C2CC2)n1 (stereo not shown) [Example 528] | good and in most cases very good herbicidal activity | good and in most cases very good herbicidal activity |
| CC(CCCOc1ccccc1)Nc1nc(N)nc(C(C)C)n1 (stereo not shown) [Example 531] | good and in most cases very good herbicidal activity | good and in most cases very good herbicidal activity |
| Cc1cccc(OCCCC(C)Nc2nc(N)nc(C(C)F)n2)c1 (stereo not shown) [Example 532] | good and in most cases very good herbicidal activity | good and in most cases very good herbicidal activity |
| CCC(CCCOc1cccc(C)c1)Nc1nc(N)nc(C(C)C)n1 (stereo not shown) [Example 553] | good and in most cases very good herbicidal activity | good and in most cases very good herbicidal activity |
| CC(C)c1nc(N)nc(NC(CCCOc2ccccc2)C2CC2)n1 (stereo not shown) [Example 554] | good and in most cases very good herbicidal activity | good and in most cases very good herbicidal activity |
| Cc1cccc(OCCCC(Nc2nc(N)nc(C(C)(C)F)n2)C2CC2)c1 (stereo not shown) [Example 582] | good and in most cases very good herbicidal activity | good and in most cases very good herbicidal activity |
| CCC(CCCCOc1ccccc1)Nc1nc(N)nc(C(C)(C)F)n1 (stereo not shown) [Example 598] | good and in most cases very good herbicidal activity | good and in most cases very good herbicidal activity |
| CCC(CCCCOc1ccccc1)Nc1nc(N)nc(C(F)(F)C(F)F)n1 (stereo not shown) [Example 605] | good and in most cases very good herbicidal activity | good and in most cases very good herbicidal activity |
| CC(CCCCOc1ccccc1)Nc1nc(N)nc(C(C)(C)F)n1 (stereo not shown) [Example 609] | good and in most cases very good herbicidal activity | good and in most cases very good herbicidal activity |
| CCCc1nc(N)nc(NC(CC)CCCCOc2ccccc2)n1 (stereo not shown) [Example 618] | good and in most cases very good herbicidal activity | good and in most cases very good herbicidal activity |
| CC(CCCCOc1ccccc1)Nc1nc(N)nc(C(C)F)n1 (stereo not shown) [Example 626] | good and in most cases very good herbicidal activity | good and in most cases very good herbicidal activity |
| CC(C)(F)c1nc(N)nc(NC(CCCCOc2ccccc2)C2CC2)n1 (stereo not shown) [Example 636] | good and in most cases very good herbicidal activity | good and in most cases very good herbicidal activity |
| Nc1nc(NC(CCCCOc2ccccc2)C2CC2)nc(C(F)(F)C(F)F)n1 (stereo not shown) [Example 645] | good and in most cases very good herbicidal activity | good and in most cases very good herbicidal activity |
| CC(F)c1nc(N)nc(NC(CCCCOc2ccccc2)C2CC2)n1 (stereo not shown) [Example 681] | good and in most cases very good herbicidal activity | good and in most cases very good herbicidal activity |
| CC(CCCCOc1ccccc1)Nc1nc(N)nc(C(F)(F)C(F)F)n1 (stereo not shown) [Example 696] | good and in most cases very good herbicidal activity | good and in most cases very good herbicidal activity |
| CC(C)(F)c1nc(N)nc(NC2CCCCC2COc2ccccc2)n1 (stereo not shown) [Example 869] | good and in most cases very good herbicidal activity | good and in most cases very good herbicidal activity |
| CC(F)c1nc(N)nc(NC2CCCCC2COc2ccccc2)n1 (stereo not shown) [Example 870] | good and in most cases very good herbicidal activity | good and in most cases very good herbicidal activity |
| Cc1cccc(CNC(=O)C(C)Nc2nc(N)nc(C(C)(C)F)n2)c1 (stereo not shown) [Example 926] | good and in most cases very good herbicidal activity | good and in most cases very good herbicidal activity |
